From patent publication US20190047966A1, “NOVEL COMPOUND AND PHARMACOLOGICALLY ACCEPTABLE SALT THEREOF” (MEIJI SEIKA PHARMA CO., LTD., priority 2016, published 2019) come the findings set out here.

Each structure is given as a SMILES string. pKi: −log10 of the molar value.

Assay [1] addresses T1, human histamine H4 receptor (Homo sapiens, UniProt Q9H3N8).
T1 construct: purchased PerkinElmer Inc; host or cells: CHO-K1
As to the kind of experiment: Evaluation of Human H4 Receptor Affinity ([3H]histamine binding). The note with it: inhibition constant Ki, CHO-K1 membrane preparation, read-out: Evaluation of H4 Receptor Affinity. How it is done: Test Example 2: Evaluation of Human H4 Receptor Affinity
Membrane preparation from recombinant CHO-K1 cell expressing the human histamine H4 receptor (PerkinElmer Inc.), radiolabeled ligand 8.2 nM [^3H]histamine (PerkinElmer Inc.), and compounds dissolved in DMSO were reacted at 25° C. for 90 minutes in a buffering solution containing 50 mM tris-hydrochloric acid, pH 7.4, and 1.25 mM EDTA on a 96 well plate, followed by filtration using a GF/B filter (PerkinElmer Inc.) pretreated with 0.3% polyethylenimine. The residue was washed four times with a buffering solution of 50 mM tris-hydrochloric acid, pH 7.4. Thereafter, a scintillation cocktail (MicroScint 20: PerkinElmer Inc.) was added to the GF/B filter, and the radioactivity of each well was measured using a liquid scintillation counter for 96-well (TopCount: PerkinElmer Inc.). The non-specific binding was evaluated in the presence of 1.0 μM histamine. The inhibition constant Ki was calculated from the 50% inhibitory concentration (IC50 value) obtained in each test and the Kd value (5.7 nM) unique to this assay system, according to the Cheng-Prusoff equation.

Assay [2] deals with human histamine H1 receptor (Homo sapiens, UniProt P35367). Description: Evaluation of Human H1 Receptor Affinity ([3H]pyrilamine binding). To be noted: inhibition constant Ki, CHO-K1 membrane preparation. Also on record: purchased PerkinElmer Inc; host or cells: CHO-K1. Here is the method: Test Example 1: Evaluation of Human H1 Receptor Affinity
Membrane preparation from recombinant CHO-K1 cell expressing the human histamine H1 receptor (PerkinElmer Inc.), radiolabeled ligand 1.2 nM [^3H]pyrilamine (PerkinElmer Inc.), and test compounds dissolved in DMSO were reacted at 25° C. for 3 hours in a buffering solution containing 50 mM tris-hydrochloric acid, pH 7.4, and 5 mM magnesium chloride on a 96 well plate, followed by filtration using a GF/B filter (PerkinElmer Inc.) pretreated with 0.3% polyethylenimine. The residue was washed four times with a buffering solution of 50 mM tris-hydrochloric acid, pH 7.4. Thereafter, a scintillation cocktail (MicroScint 20: PerkinElmer Inc.) was added to the GF/B filter, and the radioactivity of each well was measured using a liquid scintillation counter for 96-well (TopCount: PerkinElmer Inc.). The non-specific binding was evaluated in the presence of 1.0 μM pyrilamine. The inhibition constant Ki was calculated from the 50% inhibitory concentration (IC50 value) obtained in each test and the Kd value (1.1 nM) unique to this assay system, according to the Cheng-Prusoff equation.

Sequence of human histamine H1 receptor (P35367 whole entry): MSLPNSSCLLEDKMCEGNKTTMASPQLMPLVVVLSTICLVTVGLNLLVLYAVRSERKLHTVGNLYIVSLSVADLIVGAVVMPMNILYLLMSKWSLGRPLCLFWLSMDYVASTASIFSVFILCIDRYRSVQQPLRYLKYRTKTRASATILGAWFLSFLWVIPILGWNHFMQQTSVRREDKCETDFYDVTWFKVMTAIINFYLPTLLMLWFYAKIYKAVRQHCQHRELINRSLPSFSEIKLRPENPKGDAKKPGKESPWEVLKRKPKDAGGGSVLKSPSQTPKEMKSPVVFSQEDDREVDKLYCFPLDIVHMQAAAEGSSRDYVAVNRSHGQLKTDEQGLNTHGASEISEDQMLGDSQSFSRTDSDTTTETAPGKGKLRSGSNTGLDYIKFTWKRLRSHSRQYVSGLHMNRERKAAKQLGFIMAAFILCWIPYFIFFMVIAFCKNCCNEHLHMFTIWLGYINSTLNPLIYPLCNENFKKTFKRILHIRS
T1 sequence (Q9H3N8 whole entry): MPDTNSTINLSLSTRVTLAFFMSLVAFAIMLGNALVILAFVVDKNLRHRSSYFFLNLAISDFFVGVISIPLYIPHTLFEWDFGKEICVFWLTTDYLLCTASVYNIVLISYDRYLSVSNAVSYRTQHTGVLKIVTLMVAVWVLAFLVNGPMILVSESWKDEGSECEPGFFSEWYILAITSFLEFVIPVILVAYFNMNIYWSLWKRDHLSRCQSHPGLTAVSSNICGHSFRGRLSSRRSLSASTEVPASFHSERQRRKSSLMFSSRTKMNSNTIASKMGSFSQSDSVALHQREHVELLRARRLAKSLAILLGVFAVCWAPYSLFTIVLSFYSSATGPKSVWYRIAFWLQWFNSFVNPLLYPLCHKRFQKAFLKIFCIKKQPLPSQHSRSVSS

As to `COC(=O)COCCOCCN1CCN(c2nc(N)nc3c2CCc2cc(OCc4ccc(Cl)cc4)ccc2-3)CC1` [11(a), methyl 2-(2-(2-(4-(2-amino-8-((4-chlorobenzyl)oxy)-5,6-dihydrobenzo[h]quinazolin-4-yl)piperazin-1-yl)ethoxy)ethoxy)acetate], the pKi in assay [1] and in assay [2] was > 7.00 throughout.
With `COC(=O)c1cccc(COCCN2CCN(c3nc(N)nc4c3CCc3cc(OCc5ccc(Cl)cc5)ccc3-4)CC2)c1` [15(a), methyl 3-((2-(4-(2-amino-8-((4-chlorobenzyl)oxy)-5,6-dihydrobenzo[h]quinazolin-4-yl)piperazin-1-yl)ethoxy)methyl)benzoate], the pKi was 6.30 to 7.00 in assay [1] and > 7.00 in assay [2].
In the case of `COC(=O)c1cccc(COCCN2CCN(c3nc(N)nc4c3CCc3cc(OCc5ccc(OC(F)(F)F)cc5)ccc3-4)CC2)c1` [16(a), methyl 3-((2-(4-(2-amino-8-((4-(trifluoromethoxy)benzyl)oxy)-5,6-dihydrobenzo[h]quinazolin-4-yl)piperazin-1-yl)ethoxy)methyl)benzoate], the pKi is 6.30 to 7.00 in assay [1] and > 7.00 in assay [2].
On to `COC(=O)c1cc(COCCN2CCN(c3nc(N)nc4c3CCc3cc(OCc5ccc(Cl)cc5)ccc3-4)CC2)ccc1F` [17(a), methyl 5-((2-(4-(2-amino-8-((4-chlorobenzyl)oxy)-5,6-dihydrobenzo[h]quinazolin-4-yl)piperazin-1-yl)ethoxy)methyl)-2-fluorobenzoate], for which the pKi in assay [1] and in assay [2] was > 7.00 each time.
For the compound `COC(=O)c1cccc(COCCN2CCN(c3nc(N)nc4c3CCc3cc(OCc5ccc(Cl)cc5)ccc3-4)CC2)n1` [18(a), methyl 6-((2-(4-(2-amino-8-((4-chlorobenzyl)oxy)-5,6-dihydrobenzo[h]quinazolin-4-yl)piperazin-1-yl)ethoxy)methyl)picolinate], the pKi in assay [1] and in assay [2] was > 7.00 each time.
Take `COC(=O)c1ccc(OCCN2CCN(c3nc(N)nc4c3CCc3cc(OCc5ccc(Cl)cc5)ccc3-4)CC2)cc1` [19(a), methyl 4-(2-(4-(2-amino-8-((4-chlorobenzyl)oxy)-5,6-dihydrobenzo[h]quinazolin-4-yl)piperazin-1-yl)ethoxy)benzoate]: the pKi in assay [1] and in assay [2] was 6.30 to 7.00 throughout.
In the case of `COC(=O)c1ccc(COCCN2CCN(c3nc(N)nc4c3CCc3cc(OCc5ccc(OC(F)(F)F)cc5)ccc3-4)CC2)o1` [20(a), methyl 5-((2-(4-(2-amino-8-((4-(trifluoromethoxy)benzyl)oxy)-5,6-dihydrobenzo[h]quinazolin-4-yl)piperazin-1-yl)ethoxy)methyl)furan-2-carboxylate], the pKi in assay [1] is 6.30 to 7.00; in assay [2], > 7.00.
Consider `CCOC(=O)[C@]1(C)C[C@@H](OCCN2CCN(c3nc(N)nc4c3CCc3cc(OCc5ccc(Cl)cc5)ccc3-4)CC2)C1` [25(a), ethyl trans-3-(2-(4-(2-amino-8-((4-chlorobenzyl)oxy)-5,6-dihydrobenzo[h]quinazolin-4-yl)piperazin-1-yl)ethoxy)-1-methylcyclobutane-1-carboxylate], for which the pKi was 6.30 to 7.00 in assay [1] and > 7.00 in assay [2].
For `C[C@]1(C(=O)O)C[C@H](OCCN2CCN(c3nc(N)nc4c3CCc3cc(OCc5ccc(Cl)cc5)ccc3-4)CC2)C1` [25(b), trans-3-(2-(4-(2-amino-8-((4-chlorobenzyl)oxy)-5,6-dihydrobenzo[h]quinazolin-4-yl)piperazin-1-yl)ethoxy)-1-methylcyclobutane-1-carboxylic acid] the same measures were > 7.00 and > 7.00.
The like results for `CCOC(=O)[C@]1(C)C[C@H](OCCN2CCN(c3nc(N)nc4c3CCc3cc(OCc5ccc(Cl)cc5)ccc3-4)CC2)C1` [26(a), ethyl cis-3-(2-(4-(2-amino-8-((4-chlorobenzyl)oxy)-5,6-dihydrobenzo[h]quinazolin-4-yl)piperazin-1-yl)ethoxy)-1-methylcyclobutane-1-carboxylate] were, in that order, 6.30 to 7.00 and > 7.00.
The like results for `C[C@]1(C(=O)O)C[C@@H](OCCN2CCN(c3nc(N)nc4c3CCc3cc(OCc5ccc(Cl)cc5)ccc3-4)CC2)C1` [26(b), cis-3-(2-(4-(2-amino-8-((4-chlorobenzyl)oxy)-5,6-dihydrobenzo[h]quinazolin-4-yl)piperazin-1-yl)ethoxy)-1-methylcyclobutane-1-carboxylic acid] were, in that order, 6.30 to 7.00 and > 7.00.
Regarding `Nc1nc2c(c(N3CCN(CCOCC4CNC4)CC3)n1)CCc1cc(OCc3ccc(OC(F)(F)F)cc3)ccc1-2` [38(b), 4-(4-(2-(azetidin-3-ylmethoxy)ethyl)piperazin-1-yl)-8-((4-(trifluoromethoxy)benzyl)oxy)-5,6-dihydrobenzo[h]quinazolin-2-amine], the pKi in assay [1] and in assay [2] was > 7.00 in each case.
As to `COC(=O)c1ccc(COCCN2CCN(c3nc(N)nc4c3CCc3cc(OCc5ccc(Cl)cc5)ccc3-4)CC2)o1` [127(a), methyl 5-((2-(4-(2-amino-8-((4-chlorobenzyl)oxy)-5,6-dihydrobenzo[h]quinazolin-4-yl)piperazin-1-yl)ethoxy)methyl)furan-2-carboxylate], the pKi in assay [1] and in assay [2] was > 7.00 each time.
For `COC(=O)c1ccc(COCCN2CCN(c3nc(N)nc4c3CCc3cc(OCc5ccc(Cl)cc5)ccc3-4)CC2)cc1` [128(a), methyl 4-((2-(4-(2-amino-8-((4-chlorobenzyl)oxy)-5,6-dihydrobenzo[h]quinazolin-4-yl)piperazin-1-yl)ethoxy)methyl)benzoate], the values for the pKi in assay [1] and in assay [2] were 6.30 to 7.00 and > 7.00, respectively.
For `Nc1nc2c(c(N3CCN(CCOCc4ccc(C(=O)O)cc4)CC3)n1)CCc1cc(OCc3ccc(Cl)cc3)ccc1-2` [128(b), 4-((2-(4-(2-amino-8-((4-chlorobenzyl)oxy)-5,6-dihydrobenzo[h]quinazolin-4-yl)piperazin-1-yl)ethoxy)methyl)benzoic acid] the same measures were > 7.00 and > 7.00.
The like results for `COC(=O)c1ccc(F)c(COCCN2CCN(c3nc(N)nc4c3CCc3cc(OCc5ccc(Cl)cc5)ccc3-4)CC2)c1` [129(a), methyl 3-((2-(4-(2-amino-8-((4-chlorobenzyl)oxy)-5,6-dihydrobenzo[h]quinazolin-4-yl)piperazin-1-yl)ethoxy)methyl)-4-fluorobenzoate] were, in that order, 6.30 to 7.00 and > 7.00.
Turning to `COC(=O)c1cccc(OCCCN2CCN(c3nc(N)nc4c3CCc3cc(OCc5ccc(Cl)cc5)ccc3-4)CC2)c1` [131(a), methyl 3-(3-(4-(2-amino-8-((4-chlorobenzyl)oxy)-5,6-dihydrobenzo[h]quinazolin-4-yl)piperazin-1-yl)propoxy)benzoate], the pKi is 6.30 to 7.00 in assay [1] and > 7.00 in assay [2].
The like results for `Nc1nc2c(c(N3CCN(CCCOc4cccc(C(=O)O)c4)CC3)n1)CCc1cc(OCc3ccc(Cl)cc3)ccc1-2` [131(b), 3-(3-(4-(2-amino-8-((4-chlorobenzyl)oxy)-5,6-dihydrobenzo[h]quinazolin-4-yl)piperazin-1-yl)propoxy)benzoic acid] were, in that order, 6.30 to 7.00 and > 7.00.
